{"source": "ChEMBL document CHEMBL1201862", "about": "“PubChem BioAssay data set” (2004)", "key": {"[1]": {"biological_target": "DNA (cytosine-5)-methyltransferase 1 (Homo sapiens, UniProt P26358)", "sequence (P26358 whole entry)": "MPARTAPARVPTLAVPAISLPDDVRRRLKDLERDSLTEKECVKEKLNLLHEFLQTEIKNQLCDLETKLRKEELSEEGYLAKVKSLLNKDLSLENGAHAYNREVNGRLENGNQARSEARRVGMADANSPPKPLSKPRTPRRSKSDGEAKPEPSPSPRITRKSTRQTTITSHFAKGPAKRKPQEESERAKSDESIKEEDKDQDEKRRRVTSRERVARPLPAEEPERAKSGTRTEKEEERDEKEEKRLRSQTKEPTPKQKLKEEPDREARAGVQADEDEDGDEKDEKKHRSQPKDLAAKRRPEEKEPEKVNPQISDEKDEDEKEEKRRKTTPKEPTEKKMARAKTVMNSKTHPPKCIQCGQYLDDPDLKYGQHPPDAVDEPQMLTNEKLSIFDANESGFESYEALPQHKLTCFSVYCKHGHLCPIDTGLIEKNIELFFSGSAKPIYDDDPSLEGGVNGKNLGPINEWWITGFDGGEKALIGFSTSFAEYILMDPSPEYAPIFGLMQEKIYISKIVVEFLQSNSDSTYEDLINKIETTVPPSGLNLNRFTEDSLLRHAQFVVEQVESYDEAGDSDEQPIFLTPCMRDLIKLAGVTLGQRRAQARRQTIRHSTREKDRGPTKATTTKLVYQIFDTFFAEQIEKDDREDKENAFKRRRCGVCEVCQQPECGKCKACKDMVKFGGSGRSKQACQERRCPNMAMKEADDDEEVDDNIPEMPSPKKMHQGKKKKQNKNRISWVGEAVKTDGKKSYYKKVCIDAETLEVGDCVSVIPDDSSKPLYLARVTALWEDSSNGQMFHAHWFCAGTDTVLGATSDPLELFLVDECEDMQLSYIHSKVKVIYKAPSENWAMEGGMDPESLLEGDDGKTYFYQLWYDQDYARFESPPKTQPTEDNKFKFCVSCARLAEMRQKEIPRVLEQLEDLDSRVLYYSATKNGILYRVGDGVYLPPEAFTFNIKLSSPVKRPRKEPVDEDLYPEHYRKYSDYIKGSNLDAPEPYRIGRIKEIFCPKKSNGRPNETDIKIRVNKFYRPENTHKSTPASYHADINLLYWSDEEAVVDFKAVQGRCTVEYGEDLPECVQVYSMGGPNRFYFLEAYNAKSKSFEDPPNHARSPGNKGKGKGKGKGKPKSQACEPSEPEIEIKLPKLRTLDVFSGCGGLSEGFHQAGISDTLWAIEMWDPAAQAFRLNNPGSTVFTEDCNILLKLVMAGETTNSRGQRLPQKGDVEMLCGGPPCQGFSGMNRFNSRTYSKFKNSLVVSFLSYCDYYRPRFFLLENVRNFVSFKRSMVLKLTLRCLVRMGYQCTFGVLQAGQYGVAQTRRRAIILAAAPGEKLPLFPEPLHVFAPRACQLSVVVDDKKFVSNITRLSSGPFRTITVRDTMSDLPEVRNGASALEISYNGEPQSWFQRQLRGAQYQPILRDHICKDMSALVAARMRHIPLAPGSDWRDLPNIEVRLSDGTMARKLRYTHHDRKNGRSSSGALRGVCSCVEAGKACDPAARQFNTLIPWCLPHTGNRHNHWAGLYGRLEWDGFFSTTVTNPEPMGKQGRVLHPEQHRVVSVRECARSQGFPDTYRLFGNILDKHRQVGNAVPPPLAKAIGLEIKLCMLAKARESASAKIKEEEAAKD", "assay": "inhibition of DNA methylation by DNMT1 – biochemical, fluorescent molecular beacon, confirmation (AID 602386)", "format": "functional"}, "[2]": {"biological_target": "Induced myeloid leukemia cell differentiation protein Mcl-1 (Homo sapiens, UniProt Q07820)", "sequence (Q07820 whole entry)": "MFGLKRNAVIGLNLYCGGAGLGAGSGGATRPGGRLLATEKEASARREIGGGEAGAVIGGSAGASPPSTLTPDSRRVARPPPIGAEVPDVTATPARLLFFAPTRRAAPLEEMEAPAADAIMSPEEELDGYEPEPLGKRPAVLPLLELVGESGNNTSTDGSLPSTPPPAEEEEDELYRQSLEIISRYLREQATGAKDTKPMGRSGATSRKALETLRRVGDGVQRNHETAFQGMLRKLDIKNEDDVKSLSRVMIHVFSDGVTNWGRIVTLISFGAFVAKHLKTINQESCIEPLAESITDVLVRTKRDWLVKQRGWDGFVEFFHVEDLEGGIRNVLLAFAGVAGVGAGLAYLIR", "format": "functional"}, "[3]": {"biological_target": "72 kDa type IV collagenase (Homo sapiens, UniProt P08253)", "sequence (P08253 whole entry)": "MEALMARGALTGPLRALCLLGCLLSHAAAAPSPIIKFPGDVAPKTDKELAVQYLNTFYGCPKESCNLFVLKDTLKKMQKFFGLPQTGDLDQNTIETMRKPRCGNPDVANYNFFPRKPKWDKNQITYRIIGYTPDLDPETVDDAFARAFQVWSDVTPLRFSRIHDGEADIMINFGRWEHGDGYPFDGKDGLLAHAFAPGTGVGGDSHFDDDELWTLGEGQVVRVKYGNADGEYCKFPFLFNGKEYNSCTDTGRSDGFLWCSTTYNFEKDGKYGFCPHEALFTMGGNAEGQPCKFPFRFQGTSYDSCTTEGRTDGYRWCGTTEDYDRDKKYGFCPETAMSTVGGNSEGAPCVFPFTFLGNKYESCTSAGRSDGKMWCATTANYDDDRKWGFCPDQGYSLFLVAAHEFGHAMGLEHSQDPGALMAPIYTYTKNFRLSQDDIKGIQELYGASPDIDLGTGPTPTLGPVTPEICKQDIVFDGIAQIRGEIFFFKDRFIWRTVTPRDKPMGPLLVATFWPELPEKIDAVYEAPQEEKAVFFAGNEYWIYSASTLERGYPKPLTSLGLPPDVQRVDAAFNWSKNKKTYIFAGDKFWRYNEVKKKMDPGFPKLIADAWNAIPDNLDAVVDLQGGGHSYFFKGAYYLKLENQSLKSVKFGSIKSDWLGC", "assay": "Dose Response validation of uHTS RPN11 inhibitor hits using a MMP-2 Fluorescence assay.", "format": "functional"}, "[4]": {"biological_target": "26S proteasome non-ATPase regulatory subunit 14 (Homo sapiens, UniProt O00487)", "sequence (O00487 whole entry)": "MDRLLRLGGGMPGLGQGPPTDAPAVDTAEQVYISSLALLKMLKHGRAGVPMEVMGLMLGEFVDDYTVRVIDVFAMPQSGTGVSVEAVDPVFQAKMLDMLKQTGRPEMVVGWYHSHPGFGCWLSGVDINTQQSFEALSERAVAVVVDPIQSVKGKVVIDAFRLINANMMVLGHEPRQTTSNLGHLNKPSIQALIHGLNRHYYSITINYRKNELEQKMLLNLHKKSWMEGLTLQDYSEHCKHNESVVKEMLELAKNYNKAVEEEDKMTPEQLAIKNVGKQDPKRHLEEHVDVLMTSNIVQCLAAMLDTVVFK", "assay": "inhibition of proteasome subunit RPN11 – biochemical, fluorescence polarization, uHTS hits, confirmation (AID 602368)", "format": "functional"}, "[5]": {"biological_target": "T1, Histone-lysine N-methyltransferase NSD2 (Homo sapiens, UniProt O96028)", "T1 sequence (O96028 whole entry)": "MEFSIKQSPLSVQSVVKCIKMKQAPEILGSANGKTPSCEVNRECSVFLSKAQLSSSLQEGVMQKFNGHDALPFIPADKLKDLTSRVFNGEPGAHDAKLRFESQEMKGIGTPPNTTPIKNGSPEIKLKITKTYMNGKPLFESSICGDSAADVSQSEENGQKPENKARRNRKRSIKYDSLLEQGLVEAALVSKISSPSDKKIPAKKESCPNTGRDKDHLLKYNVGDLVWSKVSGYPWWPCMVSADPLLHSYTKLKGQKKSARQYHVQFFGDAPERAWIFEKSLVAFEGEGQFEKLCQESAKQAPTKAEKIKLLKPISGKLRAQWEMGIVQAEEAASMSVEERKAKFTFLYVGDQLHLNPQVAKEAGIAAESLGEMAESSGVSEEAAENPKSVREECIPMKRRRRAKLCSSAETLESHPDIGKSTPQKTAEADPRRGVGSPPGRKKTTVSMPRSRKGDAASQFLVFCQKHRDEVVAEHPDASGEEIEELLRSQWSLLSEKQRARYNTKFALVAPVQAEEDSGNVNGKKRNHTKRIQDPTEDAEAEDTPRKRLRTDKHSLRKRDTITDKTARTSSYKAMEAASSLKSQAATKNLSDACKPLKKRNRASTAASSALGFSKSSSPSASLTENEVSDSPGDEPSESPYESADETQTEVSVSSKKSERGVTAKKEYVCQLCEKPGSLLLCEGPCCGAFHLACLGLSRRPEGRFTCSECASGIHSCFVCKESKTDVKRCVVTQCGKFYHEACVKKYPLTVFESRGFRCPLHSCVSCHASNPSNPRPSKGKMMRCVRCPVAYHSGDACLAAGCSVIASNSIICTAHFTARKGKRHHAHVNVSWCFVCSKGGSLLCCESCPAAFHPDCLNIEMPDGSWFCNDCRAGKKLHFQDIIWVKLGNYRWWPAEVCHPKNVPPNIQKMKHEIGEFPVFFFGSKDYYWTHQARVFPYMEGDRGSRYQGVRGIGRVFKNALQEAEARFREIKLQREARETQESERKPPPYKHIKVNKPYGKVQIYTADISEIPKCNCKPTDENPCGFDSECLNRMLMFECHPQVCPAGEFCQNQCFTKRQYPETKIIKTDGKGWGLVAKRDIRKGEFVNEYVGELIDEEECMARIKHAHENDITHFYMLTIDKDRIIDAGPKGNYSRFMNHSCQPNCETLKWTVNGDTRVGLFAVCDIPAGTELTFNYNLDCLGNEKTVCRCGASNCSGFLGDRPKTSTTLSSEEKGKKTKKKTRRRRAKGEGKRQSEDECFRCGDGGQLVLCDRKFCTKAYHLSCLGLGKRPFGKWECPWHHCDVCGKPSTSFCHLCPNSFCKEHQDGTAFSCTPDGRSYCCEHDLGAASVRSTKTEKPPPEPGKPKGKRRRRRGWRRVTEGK", "format": "biochemical"}, "Prothrombin": {"biological_target": "Prothrombin (Bos taurus, UniProt P00735)", "assay": "thrombin protease inhibitors – biochemical, fluorescence polarization, uHTS hits, dose response (AID 602369)", "format": "functional"}, "[6]": {"biological_target": "Bifunctional protein GlmU (Mycobacterium tuberculosis, UniProt P9WMN3)", "sequence (P9WMN3 whole entry)": "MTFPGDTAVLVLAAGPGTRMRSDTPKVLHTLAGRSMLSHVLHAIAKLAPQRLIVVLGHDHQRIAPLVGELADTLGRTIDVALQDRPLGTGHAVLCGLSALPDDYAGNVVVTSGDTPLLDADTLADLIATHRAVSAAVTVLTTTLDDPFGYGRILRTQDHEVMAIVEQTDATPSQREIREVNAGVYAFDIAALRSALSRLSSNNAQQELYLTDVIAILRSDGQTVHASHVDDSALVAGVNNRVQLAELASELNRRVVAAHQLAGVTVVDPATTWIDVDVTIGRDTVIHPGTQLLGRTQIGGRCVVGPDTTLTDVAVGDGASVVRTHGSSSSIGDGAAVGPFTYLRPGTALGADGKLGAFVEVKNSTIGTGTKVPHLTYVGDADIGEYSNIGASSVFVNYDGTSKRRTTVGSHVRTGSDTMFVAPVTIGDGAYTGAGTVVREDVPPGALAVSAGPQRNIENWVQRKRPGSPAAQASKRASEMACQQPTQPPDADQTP", "assay": "Inhibitors of Mycobacterial Glucosamine-1-phosphate acetyl transferase (GlmU). Secondary screen.", "set-up": "species or system Mycobacterium tuberculosis H37Rv"}, "[7]": {"biological_target": "T2, Rac GTPase-activating protein 1 (Homo sapiens, UniProt Q9H0H5)", "T2 sequence (Q9H0H5 whole entry)": "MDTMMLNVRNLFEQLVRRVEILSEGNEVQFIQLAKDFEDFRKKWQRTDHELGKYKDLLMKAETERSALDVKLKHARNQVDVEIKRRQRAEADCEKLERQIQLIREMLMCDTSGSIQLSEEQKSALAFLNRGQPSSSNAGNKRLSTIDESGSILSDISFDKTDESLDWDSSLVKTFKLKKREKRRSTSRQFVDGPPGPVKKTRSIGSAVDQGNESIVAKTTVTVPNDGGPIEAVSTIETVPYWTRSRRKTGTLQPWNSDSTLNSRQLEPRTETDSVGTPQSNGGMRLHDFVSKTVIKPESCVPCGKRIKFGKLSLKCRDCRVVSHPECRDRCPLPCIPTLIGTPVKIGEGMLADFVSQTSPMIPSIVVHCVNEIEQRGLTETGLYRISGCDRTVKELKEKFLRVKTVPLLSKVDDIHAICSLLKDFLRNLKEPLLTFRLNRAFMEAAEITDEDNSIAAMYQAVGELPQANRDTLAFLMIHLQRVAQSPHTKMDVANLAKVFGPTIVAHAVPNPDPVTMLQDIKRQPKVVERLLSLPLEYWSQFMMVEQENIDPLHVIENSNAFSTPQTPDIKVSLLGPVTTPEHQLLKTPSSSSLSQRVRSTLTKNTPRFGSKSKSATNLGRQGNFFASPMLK", "assay": "blockers of MgcRacGAP-driven Rac1 GTP hydrolysis – biochemical, ADP Hunter fluorescence, primary and confirmatory, confirmation (AID 624330)", "format": "functional"}, "Aminopeptidase N": {"biological_target": "T3, Aminopeptidase N (Plasmodium falciparum FcB1/Columbia, UniProt O96935)", "T3 sequence (O96935 whole entry)": "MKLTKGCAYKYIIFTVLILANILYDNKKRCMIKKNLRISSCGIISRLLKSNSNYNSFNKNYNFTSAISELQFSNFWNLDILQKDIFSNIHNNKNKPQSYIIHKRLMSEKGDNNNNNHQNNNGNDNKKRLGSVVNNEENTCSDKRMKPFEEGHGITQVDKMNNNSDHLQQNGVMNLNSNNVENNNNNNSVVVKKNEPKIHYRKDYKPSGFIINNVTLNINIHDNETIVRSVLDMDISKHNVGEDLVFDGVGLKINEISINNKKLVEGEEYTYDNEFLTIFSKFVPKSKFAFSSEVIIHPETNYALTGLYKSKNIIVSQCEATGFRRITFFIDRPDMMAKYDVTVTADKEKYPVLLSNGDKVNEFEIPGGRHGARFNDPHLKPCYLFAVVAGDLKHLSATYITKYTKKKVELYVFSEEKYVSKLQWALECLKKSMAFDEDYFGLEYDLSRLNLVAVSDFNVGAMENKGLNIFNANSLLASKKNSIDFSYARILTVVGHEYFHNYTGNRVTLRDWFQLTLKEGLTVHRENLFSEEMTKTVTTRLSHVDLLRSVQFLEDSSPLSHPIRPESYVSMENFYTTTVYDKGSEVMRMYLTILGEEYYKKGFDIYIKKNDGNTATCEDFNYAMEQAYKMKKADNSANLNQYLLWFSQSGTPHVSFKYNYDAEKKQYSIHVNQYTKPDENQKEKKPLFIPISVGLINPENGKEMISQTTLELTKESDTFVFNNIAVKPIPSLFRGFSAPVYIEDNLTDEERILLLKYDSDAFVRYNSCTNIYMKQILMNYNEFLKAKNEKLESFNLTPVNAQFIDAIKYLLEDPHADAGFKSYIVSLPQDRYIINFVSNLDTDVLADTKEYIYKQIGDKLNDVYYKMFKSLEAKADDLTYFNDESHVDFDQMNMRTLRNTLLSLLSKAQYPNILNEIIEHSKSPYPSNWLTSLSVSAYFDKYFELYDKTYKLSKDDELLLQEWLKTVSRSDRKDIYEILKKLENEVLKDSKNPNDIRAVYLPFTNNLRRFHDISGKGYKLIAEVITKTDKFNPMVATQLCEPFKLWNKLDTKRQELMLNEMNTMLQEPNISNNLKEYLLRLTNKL", "assay": "malaria alanyl aminopeptidase activity blockers – biochemical, fluorogenic H-Leu-NHMec substrate, 1536-well (AID 1445)", "set-up": "species or system Plasmodium falciparum 3D7, 3D7"}, "[8]": {"assay": "NIH-3T3 fibroblast cytotoxicity, dose response, cytotoxicity control, cell-based, fluorescence, Alamar Blue, secondary assay (AID 2327);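 further: NIH-3T3 mouse fibroblasts cultured with fluconazole at 8 µg/mL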", "format": "functional"}, "[9]": {"biological_target": "Sphingosine 1-phosphate receptor 2 (Homo sapiens, UniProt O95136)", "sequence (O95136 whole entry)": "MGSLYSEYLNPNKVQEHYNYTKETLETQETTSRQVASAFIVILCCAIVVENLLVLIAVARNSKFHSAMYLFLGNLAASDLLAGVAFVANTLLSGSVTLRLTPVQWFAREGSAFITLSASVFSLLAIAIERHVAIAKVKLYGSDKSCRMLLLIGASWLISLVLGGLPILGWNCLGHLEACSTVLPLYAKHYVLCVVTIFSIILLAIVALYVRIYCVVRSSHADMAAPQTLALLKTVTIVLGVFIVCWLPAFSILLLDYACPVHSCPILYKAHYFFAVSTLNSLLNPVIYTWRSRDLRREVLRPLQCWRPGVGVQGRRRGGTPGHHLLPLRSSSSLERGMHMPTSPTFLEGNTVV", "assay": "Dose Response Cell Based Assay for Antagonists of the S1P2 Receptor. [Related pubchem assays: 856, 736 ]", "format": "functional"}, "[10]": {"assay": "fluconazole-exposed Candida albicans growth modulators – fluorescence, retest, confirmation (AID 2467)", "format": "functional, cell-based"}, "[11]": {"assay": "viability loss in Vero cells – cytotoxicity control for Vif-APOBEC3G degradation inhibitor project, dose response (AID 1117358)", "format": "functional", "settings": "Vero"}, "Jurkat": {"tested_on": "Jurkat", "assay": "blockers of NF-kB activation in T cells – Jurkat, luciferase reporter, luminescence, B- and T-cell, dose response (AID 489004);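 further: NF-kB luciferase reporter Jurkat cells stimulated with PMA plus ionomycin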", "format": "functional, cell-based", "settings": "Homo sapiens"}, "INS1": {"tested_on": "INS1", "assay": "INS-1E survival protection against cytokine death – cell-based, luminescence, retest, dose response (AID 449756);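 further: cell death triggered by IL-1 beta plus TNF-alpha plus IFN-gamma mixture; protective hits raise ATP signal compared with cytokine alone wells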", "format": "functional", "settings": "Rattus norvegicus"}, "[12]": {"assay": "HEK-293T viability loss, compound-treated – cell-based, uHTS hits, cytotoxicity control for B/T-cell NF-kB inhibitor project, dose response (AID 489019)", "format": "functional"}, "Protein skinhead-1": {"biological_target": "T4, Protein skinhead-1 (Caenorhabditis elegans, UniProt P34707)", "T4 sequence (P34707 whole entry)": "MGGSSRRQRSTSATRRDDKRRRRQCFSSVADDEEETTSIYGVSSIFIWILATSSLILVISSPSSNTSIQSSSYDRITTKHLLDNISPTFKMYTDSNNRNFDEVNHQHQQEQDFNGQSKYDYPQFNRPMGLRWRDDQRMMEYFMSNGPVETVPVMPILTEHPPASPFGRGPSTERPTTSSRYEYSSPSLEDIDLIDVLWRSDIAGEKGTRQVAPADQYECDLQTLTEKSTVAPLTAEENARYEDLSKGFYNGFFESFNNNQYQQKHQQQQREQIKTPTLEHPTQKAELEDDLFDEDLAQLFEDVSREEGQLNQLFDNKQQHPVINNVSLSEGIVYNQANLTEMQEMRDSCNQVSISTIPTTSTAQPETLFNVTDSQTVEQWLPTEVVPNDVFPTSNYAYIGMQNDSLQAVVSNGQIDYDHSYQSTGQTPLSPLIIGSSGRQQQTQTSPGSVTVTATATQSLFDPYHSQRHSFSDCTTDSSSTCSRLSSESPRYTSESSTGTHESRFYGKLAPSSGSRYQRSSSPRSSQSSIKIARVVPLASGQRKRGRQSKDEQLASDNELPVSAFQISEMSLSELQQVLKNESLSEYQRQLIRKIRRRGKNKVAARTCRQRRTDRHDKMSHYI", "format": "functional"}, "[13]": {"biological_target": "Signal transducer and activator of transcription 1-alpha/beta (Homo sapiens, UniProt P42224)", "sequence (P42224 whole entry)": "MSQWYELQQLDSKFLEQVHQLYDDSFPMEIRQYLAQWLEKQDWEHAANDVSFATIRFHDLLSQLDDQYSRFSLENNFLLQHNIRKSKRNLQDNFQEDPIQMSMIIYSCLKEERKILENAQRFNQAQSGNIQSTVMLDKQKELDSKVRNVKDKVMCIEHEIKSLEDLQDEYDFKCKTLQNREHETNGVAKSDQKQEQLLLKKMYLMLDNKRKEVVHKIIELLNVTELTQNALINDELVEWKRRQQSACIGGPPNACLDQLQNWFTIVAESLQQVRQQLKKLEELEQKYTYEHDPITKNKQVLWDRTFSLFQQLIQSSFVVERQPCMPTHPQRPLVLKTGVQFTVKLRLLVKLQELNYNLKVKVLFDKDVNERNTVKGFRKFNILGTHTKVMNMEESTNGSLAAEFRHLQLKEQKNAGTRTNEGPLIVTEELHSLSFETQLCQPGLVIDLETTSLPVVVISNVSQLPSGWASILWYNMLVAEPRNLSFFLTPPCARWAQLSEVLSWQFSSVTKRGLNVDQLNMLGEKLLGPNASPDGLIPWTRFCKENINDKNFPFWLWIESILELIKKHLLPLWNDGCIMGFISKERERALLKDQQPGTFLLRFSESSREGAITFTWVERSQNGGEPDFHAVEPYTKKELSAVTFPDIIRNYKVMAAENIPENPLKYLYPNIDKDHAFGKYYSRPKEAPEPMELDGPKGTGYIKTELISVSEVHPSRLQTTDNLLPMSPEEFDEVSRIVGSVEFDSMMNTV", "assay": "inhibition of STAT1 reporter activity – cell-based, NIH 3T3, luciferase reporter, dose response (AID 1396)", "format": "functional"}}, "note": "Calls of active or inactive are those of the source.", "data": [{"smiles": "CCS(=O)(=O)C1=NN2C(=N)/C(=C\\c3ccc(SCc4ccco4)o3)C(=O)N=C2S1", "values": [{"measurement": "IC50", "setting": "[1]", "result": "5.71 µM (active)"}, {"measurement": "IC50", "setting": "[2]", "result": "3.96 µM (active)"}, {"measurement": "IC50", "setting": "[3]", "result": "4.49 µM (active)"}, {"measurement": "IC50", "setting": "[4]", "result": "12 µM (active)"}, {"measurement": "AC50", "setting": "[5]", "result": "7.62 µM (active)"}, {"measurement": "IC50", "setting": "Prothrombin", "result": "28.5 µM (active)"}, {"measurement": "IC50", "setting": "[6]", "result": "49.4 µM (active)"}, {"measurement": "IC50", "setting": "[7]", "result": "132 µM (active)"}, {"measurement": "IC50", "setting": "Aminopeptidase N", "result": "24.2 µM (active)"}]}, {"smiles": "CCCCCCCCNc1ncnc2ccccc12", "values": [{"measurement": "EC50", "setting": "[8]", "result": "> 160 µM (inactive)"}, {"measurement": "IC50", "setting": "[9]", "result": "1.23 µM (active)"}, {"measurement": "EC50", "setting": "[10]", "result": "3.26 µM (active)"}, {"measurement": "CC50", "setting": "[11]", "result": "> 40 µM (active)"}, {"measurement": "IC50", "setting": "Jurkat", "result": "> 80 µM (inactive)"}, {"measurement": "AC50", "setting": "INS1", "result": "0.232 µM (active)"}, {"measurement": "IC50", "setting": "[12]", "result": "> 80 µM (inactive)"}, {"measurement": "IC50", "setting": "Protein skinhead-1", "result": "33 µM (active)"}]}, {"smiles": "CCOC(=O)C(/C=N/c1cc(C)nn1-c1ccccc1)=C(/O)OCC", "values": [{"measurement": "IC50", "setting": "[13]", "result": "6.37 µM (active)"}]}]}
